Results: patent US6335339B1, “Triazine antiviral compounds” (Scriptgen Pharmaceuticals, Inc., priority 1998, dated 2002)
Read-outs that look alike come from different tables or passages of the source.

Tests used:
HIV derived RRE RNA = assay: heterologous hybridization inhibition assay with RRE RNA; format: binding; conditions: radiolabeled RRE RNA, rRNA competitor
Excerpt: Specificity is further tested in a third assay in which the radiolabeled RNA is the HIV derived RRE RNA and the biotinylated oligonucleotide is complementary to RRE. Compounds with high specific activity for εRNA are not expected to be inhibitory in the RRE RNA based assay. The specificity of the ligand for εRNA is expressed as the ratio between the IC50 value obtained with the specific target RNA and the IC50 value obtained with a heterologous target (RRE RNA), both in the presence of competitor RNA.
Biotinylated oligonucleotides 262.104 A (5′-biotin-TTAGGCACAGCTTGGAGGCTTGAACAGTG-3′) and 208.92 A (5′-biotin-CGTCATTGACGCTGCGCCCA-3′) were synthetically prepared (Oligos Etc., Willsonville, Oreg.). These oligonucleotides are complementary to regions of the εRNA and RRE RNA targets, respectively.
Compounds that inhibited the primary screening assay described above were individually titrated in the same assay at concentrations between 0.1 μM and 200 μM in the absence and presence of 60-fold excess rRNA as a non-specific competitor. A third titration was performed in a heterologous assay using radiolabeled RRE RNA as the target and the complementary biotinylated oligonucleotide 208.92 A. From these three assays, the IC50 values and specificity for each compound was calculated.
IC50 values using rRNA competitor (from Example 1) and radiolabeled RRE RNA are shown in Table 1 for the following ligands. […] Specificity is calculated as the ratio of RRE+rRNA IC50/εRNA+rRNA IC50.

HBV = assay: antiviral assay in 2.2.15 cells producing HBV (virion DNA dot blot); format: cell-based, Hepatitis B virus
Excerpt: Several cell lines and cell culture assays have been developed to identify potential therapeutics effective against chronic HBV infection. One of these cell lines, 2.2.15, has been used in a standardized assay that has repeatedly proven to be an accurate model of chronic cellular HBV replication and a predictive model of antiviral response for chronic hepadnaviral infection in vivo. 2.2.15 cells contain copies of the complete HBV genome integrated into the cell's genome, and 2.2.15 cells are not susceptible to infection by HBV. (Sells, M. A. et al., J. Virol. 62 (8): 2836-2844 (1988)). These cells express HBV genes producing complete HBV particles capable of infecting chimpanzees (Acs, G. et al., Proc. Natl. Acad. Sci. USA 84 (13): 4641-4644 (1987)). Briefly, 2.2.15 cells are cultured and pretreated with a test compound for about 9 days, at which point the media are harvested and subjected to dot-blot hybridization to detect HBV virion DNA.
The antiviral activity of the compounds of the present invention is measured by the methods described in Korba and Gering, Antiviral Res. 19: 55-70 (1992).
This assay format is well suited to the screening of test compounds for potential antiviral activity. The assay provides a threshold assessment of antiviral activity by measuring (i) the levels of HBV virion release from the cells and (ii) cytotoxicity. Two rows of cells were used for each compound, and 4 rows for the assay controls (two for untreated, and two for positive antiviral control, e.g., 3TC). After incubating in the presence of test compound for 9 days, the media were harvested, transferred to 96-well U-bottom plates, and centrifuged. The supernatants were transferred to tubes for dot blot hybridization analysis of HBV virion DNA. The medium was aspirated off of the toxicity plates and discarded. Toxicity plates were then incubated with neutral red dye (MTT can also be used if preferred), washed with DPBS, developed with an acetic acid-ethanol solution, and assayed in a plate reader.
1. 2.2.15 cells were seeded into 96-well, flat bottom tissue culture plates as described above. Duplicate plates were used for the antiviral treatments for each test compound (up to 8 compounds per pair of plates); after three to four days, cells were confluent and medium was yellow in color; the medium was removed and replaced with 100 μl RP2 24 hours before the beginning of drug treatment.
i) For each compound, a total of 4 concentrations were examined; this required 9 sets of 4 sterile, 1.1 ml minitubes (36 tubes per compound). Into the first tube of each set, sufficient compound was aliquoted to make up 700 μl (for 10-fold dilution series) or 980 μl (for 3.3-fold dilution series) of the highest test concentration; the other tubes were left empty.
i) For a 10-fold dilution series: to the first (compound containing) tube was added 700 μl (175 μl×4). 630 μl (210 μl×3) RP2 culture medium was added to the remaining 3 tubes. The first tube was mixed by pipeting up and down with a pipetman (a multichannel pipetman permits the simultaneous processing of multiple compounds). 70 μl of test compound-containing medium were serially transferred from the first tube to the other 3 tubes, taking care to thoroughly mix each tube before transferring medium;
b) 100 μl of each dilution of every compound was added to each of 6 wells (3 wells per plate) using the configuration listed below as an example. The lowest concentration was added first, and the same tips were used to add the higher concentrations. The untreated cells received 100 μl RP2 per well (untreated cells have to be carried on only one pair of the antiviral assay plates).
c) Treatments were repeated daily for 9 days. For the last day of treatment, and additional 200 μl RP2 were added to each well of the antiviral assay plates after the wells are treated with the test compounds (a total of 300 μl medium per well).
6. […]

[1] = extra-cellular virus reduced by 50%, 2.2.15 cells, 9 days treatment, read-out: Antiviral EC50

Structure (SMILES) | RRE + rRNA IC50 (μM) (HIV derived RRE RNA) | EC50 (HBV; [1]) | also measured
COc1ccccc1C=NNc1nc(NCc2ccccc2)nc(Nc2ccccc2)n1 [Compound 195] | inactive | > 100 µM | –
CN(C)c1nc(NCc2ccccc2)nc(NCc2cccs2)n1 [Compound 192] | inactive | > 100 µM | –
Cc1ccc(Nc2nc(NN=Cc3ccccc3O)nc(Nc3ccc([N+](=O)[O-])cc3)n2)cc1C [Compound 12] | inactive | 0.759 µM | –
COc1c(Br)cc(Br)cc1C=NNc1nc(Nc2ccccc2)nc(N2CCCCC2)n1 [Compound 14] | inactive | > 100 µM | –
COc1ccc(Nc2nc(NN=Cc3ccc(O)cc3O)nc(Nc3ccccc3)n2)cc1 [Compound 158] | inactive | 42 µM | –
CCN(CC)CCNc1ccc2c3c(cccc13)C(=O)N(Nc1nc(NCc3ccccc3)nc(N(CC)CC)n1)C2=O [Compound 27] | inactive | > 100 µM | –
Cc1ccccc1Nc1nc(NN=Cc2ccc(I)cc2)nc(Nc2ccc([N+](=O)[O-])cc2)n1 [Compound 10] | inactive | > 100 µM | –
Brc1cccc(C=NNc2nc(Nc3ccccc3)nc(N3CCOCC3)n2)c1 [Compound 163] | inactive | 0.958 µM | –
COc1ccc(Nc2nc(NN=Cc3ccc(Cl)cc3)nc(Nc3ccccc3)n2)cc1 [Compound 22] | inactive | > 100 µM | –
Cc1ccc(Nc2nc(NN=Cc3cc(I)ccc3O)nc(Nc3ccccc3)n2)c(C)c1 [Compound 159] | inactive | 0.498 µM | –
COc1ccc(Nc2nc(NN=Cc3ccc(OC)cc3OC)nc(Nc3ccccc3)n2)cc1 [Compound 20] | inactive | 4.1 µM | –
Oc1ccc2ccccc2c1C=NNc1nc(Nc2cccc3ccccc23)nc(N2CCOCC2)n1 [Compound 167] | inactive | 1.7 µM | –
CCCCN(CCCC)c1nc(NN=Cc2ccc(Cl)cc2)nc(Nc2ccc([N+](=O)[O-])cc2)n1 [Compound 16] | inactive | 15 µM | –
CN(C)c1nc(NCc2ccccc2)nc(NN=Cc2ccc(Cl)cc2Cl)n1 [Compound 224] | inactive | > 100 µM | –
Cc1ccc(Nc2nc(NN=Cc3cccc(I)c3)nc(Nc3ccccc3)n2)cc1 [Compound 30] | inactive | 54 µM | –
CCCCN(CCCC)c1nc(NN=Cc2ccc3c(c2)OCO3)nc(Nc2ccc([N+](=O)[O-])cc2)n1 [Compound 11] | inactive | 3.9 µM | –
CCN(CC)c1nc(NN=Cc2ccc([N+](=O)[O-])cc2)nc(Nc2ccccc2)n1 [Compound 13] | inactive | 8.4 µM | –
COc1ccc(Nc2nc(NN=Cc3cc(Br)cc(Br)c3O)nc(N3CCOCC3)n2)cc1 [Compound 200] | inactive | > 100 µM | –
COc1ccc(Nc2nc(NN=Cc3ccc(O)cc3O)nc(N3CCOCC3)n2)cc1 [Compound 164] | inactive | 0.863 µM | –

Structure (SMILES) | RRE + rRNA IC50 (μM) (HIV derived RRE RNA) | EC50 (HBV; [1]) | also measured
Cc1ccc(Nc2nc(NN=Cc3cccc([N+](=O)[O-])c3)nc(Nc3ccccc3)n2)c(C)c1 [Compound 229] | inactive | > 100 µM | –
COc1c(C=NNc2nc(Nc3ccccc3)nc(Nc3ccccc3)n2)ccc(Br)c1O [Compound 168] | inactive | 0.7 µM | –
Ic1cccc(C=NNc2nc(Nc3ccc4ccccc4c3)nc(N3CCOCC3)n2)c1 [Compound 166] | inactive | 1.4 µM | –
O=[N+]([O-])c1ccc(Nc2nc(NCc3ccccc3)nc(NN=Cc3ccccc3)n2)cc1 [Compound 24] | inactive | 18 µM | –
Cc1ccc(Nc2nc(NN=Cc3ccccc3)nc(Nc3ccccc3)n2)c(C)c1 [Compound 7] | Inactive | 33 µM | –
Cc1ccc(C=NNc2nc(Nc3ccc([N+](=O)[O-])cc3)nc(Nc3ccccc3C)n2)cc1 [Compound 15] | inactive | 0.5 µM | –
CCCCN(CCCC)c1nc(NN=Cc2ccc([N+](=O)[O-])cc2)nc(Nc2ccc([N+](=O)[O-])cc2)n1 [Compound 5] | inactive | 0.411 µM | EC90 (HBV; drug alone, Example 3, read-out: 90% viral reduction (EC90)): 1.3 µM
Cc1ccc(Nc2nc(Nc3cccc(C(F)(F)F)c3)nc(N3CCOCC3)n2)cc1C [Compound 251] | inactive | > 100 µM | –
CC(=NNc1nc(Nc2ccccc2)nc(N2CCCC2)n1)c1ccc([N+](=O)[O-])cc1 [Compound 183] | inactive | 52 µM | –
FC(F)(F)c1cccc(Nc2nc(Nc3ccccc3)nc(N3CCOCC3)n2)c1 [Compound 21] | inactive | 5.6 µM | –
CCN(CC)c1nc(NCc2ccccc2)nc(N/N=C/c2ccccc2O)n1 [Compound 155, 2-hydroxybenzaldehyde N-[4-(benzylamino)-6-(diethylamino)-1,3,5-triazin-2-yl]hydrazone] | inactive | – | EC50 (HBV; Hepatitis B virus, 216 h, read-out: Antiviral EC50 (μM)): 0.063 µM; EC50 (HBV; Hepatitis B virus, 216 h, extra-cellular virus reduced by 50%, 2.2.15 cells, 9 days treatment, read-out: Antiviral EC50): 0.001 µM
Cc1ccc(Nc2nc(NCc3ccccc3)nc(NN=Cc3ccc(F)cc3F)n2)cc1C [Compound 191] | inactive | > 100 µM | –
Cc1ccc(Nc2nc(NN=Cc3ccc(Cl)cc3)nc(N3CCOCC3)n2)cc1 [Compound 249] | inactive | > 100 µM | –
Cc1ccc(Nc2nc(NCc3cc(F)ccc3F)nc(Nc3ccc([N+](=O)[O-])cc3)n2)cc1C [Compound 248] | inactive | > 100 µM | –
Oc1c(Br)cc(Cl)cc1/C=N/Nc1nc(Nc2cccc(C(F)(F)F)c2)nc(N2CCOCC2)n1 [Compound 34] | inactive | 66 µM | –
CCCCN(CCCC)c1nc(NN=Cc2ccc(OCC)c(O)c2)nc(Nc2ccc([N+](=O)[O-])cc2)n1 [Compound 23] | inactive | 40 µM | –
Cc1ccc(Nc2nc(NN=Cc3ccc(I)cc3)nc(Nc3ccccc3)n2)c(C)c1 [Compound 113] | – | > 100 µM | IC50 (HIV derived RRE RNA): 300 µM
Cc1cccc(C(=O)Oc2ccc(C=NNc3nc(N4CCCCC4)nc(N4CCCCC4)n3)cc2)c1 [Compound 181] | inactive | 6 µM | –
C(=Cc1ccccc1)C=NNc1nc(Nc2ccccc2)nc(N2CCCC2)n1 [Compound 213] | – | > 100 µM | IC50 (HIV derived RRE RNA): 519 µM
